Laboratory results: PMC5218480 (PLoS ONE, 2017)

Test system: MV-4-11 cells
Experiment: Gene expression microarray analysis (Affymetrix PrimeView) and GSEA
Format: cell-based, human
Set-up: RFU PODN (11730768_x_at) / Fold change /veh PODN (11730768_x_at) / RFU LINC00158 (11744669_a_at) / Fold change /veh LINC00158 (11744669_a_at) / RFU DUSP10 (11751237_a_at) / Fold change /veh DUSP10 (11751237_a_at) / RFU ID3 (11757404_x_at) / Fold change /veh ID3 (11757404_x_at) / RFU PLEKHG5 (11737974_s_at) / Fold change /veh PLEKHG5 (11737974_s_at) / RFU LRRC4B (11730491_at) / Fold change /veh LRRC4B (11730491_at) / RFU GIMAP4 (11747438_a_at) / Fold change /veh GIMAP4 (11747438_a_at) / RFU KRT8 (11758183_x_at) / Fold change /veh KRT8 (11758183_x_at) / RFU CNN1 (11734310_a_at) / Fold change /veh CNN1 (11734310_a_at) / RFU VPS37D (11726825_at) / Fold change /veh VPS37D (11726825_at) / RFU C10orf10 (11716522_x_at) / Fold change /veh C10orf10 (11716522_x_at) / RFU KIR2DL2 /// KIR2DL4 /// KIR2DL5A /// KIR2DL5B /// KIR2DS1 /// KIR2DS2 /// KIR2DS3 /// KIR2DS4 /// KIR3DL3 /// KIR3DL3 /// KIR3DS1 (11738374_at) / Fold change /veh KIR2DL2 /// KIR2DL4 /// KIR2DL5A /// KIR2DL5B /// KIR2DS1 /// KIR2DS2 /// KIR2DS3 /// KIR2DS4 /// KIR3DL3 /// KIR3DL3 /// KIR3DS1 (11738374_at) / RFU C1QL1 (11718748_at) / Fold change /veh C1QL1 (11718748_at) / RFU TMPRSS4 (11747572_a_at) / Fold change /veh TMPRSS4 (11747572_a_at) / RFU HAMP (11756126_x_at) / Fold change /veh HAMP (11756126_x_at) / RFU RNFT2 (11725882_a_at) / Fold change /veh RNFT2 (11725882_a_at) / RFU NR4A2 (11747474_a_at) / Fold change /veh NR4A2 (11747474_a_at) / RFU ABCC12 (11746883_a_at) / Fold change /veh ABCC12 (11746883_a_at) / RFU TMEM136 (11760407_x_at) / Fold change /veh TMEM136 (11760407_x_at) / RFU CLDN22 /// WWC2 (11732394_at) / Fold change /veh CLDN22 /// WWC2 (11732394_at) / RFU HLA-DPB1 (11760878_x_at) / Fold change /veh HLA-DPB1 (11760878_x_at) / RFU SPINT1 (11716480_a_at) / Fold change /veh SPINT1 (11716480_a_at) / RFU GAP43 (11754022_s_at) / Fold change /veh GAP43 (11754022_s_at) / RFU A4GNT (11735810_at) / Fold change /veh A4GNT (11735810_at) / RFU PRB3 (11715151_x_at) / Fold change /veh PRB3 (11715151_x_at) / RFU TUBB4B (11761932_at) / Fold change /veh TUBB4B (11761932_at) / RFU CAPN14 (11732068_a_at) / Fold change /veh CAPN14 (11732068_a_at) / RFU TMCC2 (11721928_a_at) / Fold change /veh TMCC2 (11721928_a_at) / RFU IRGQ (11745062_a_at) / Fold change /veh IRGQ (11745062_a_at) / RFU FAM174B (11720279_a_at) / Fold change /veh FAM174B (11720279_a_at) / RFU TMPRSS4 (11748680_a_at) / Fold change /veh TMPRSS4 (11748680_a_at) / RFU FAM212B (11763350_a_at) / Fold change /veh FAM212B (11763350_a_at) / RFU PLEKHG5 (11743358_a_at) / Fold change /veh PLEKHG5 (11743358_a_at) / RFU ZSCAN30 (11745921_a_at) / Fold change /veh ZSCAN30 (11745921_a_at) / RFU CMKLR1 (11741424_a_at) / Fold change /veh CMKLR1 (11741424_a_at) / RFU LOC101060620 /// MAPK8IP1 (11723275_at) / Fold change /veh LOC101060620 /// MAPK8IP1 (11723275_at) / RFU SPTSSB (11747773_x_at) / Fold change /veh SPTSSB (11747773_x_at) / RFU PRSS12 (11739890_at) / Fold change /veh PRSS12 (11739890_at) / RFU BIN1 (11741810_x_at) / Fold change /veh BIN1 (11741810_x_at) / RFU WNT11 (11732464_a_at) / Fold change /veh WNT11 (11732464_a_at) / RFU C10orf10 (11716521_a_at) / Fold change /veh C10orf10 (11716521_a_at) / RFU C5orf56 (11738089_at) / Fold change /veh C5orf56 (11738089_at) / RFU CYB561 (11721691_x_at) / Fold change /veh CYB561 (11721691_x_at) / RFU ANKRD19P (11752326_a_at) / Fold change /veh ANKRD19P (11752326_a_at) / RFU OR2T12 /// OR2T33 /// OR2T8 (11738714_s_at) / Fold change /veh OR2T12 /// OR2T33 /// OR2T8 (11738714_s_at) / RFU VCAN (11748164_a_at) / Fold change /veh VCAN (11748164_a_at) / RFU JSRP1 (11732532_at) / Fold change /veh JSRP1 (11732532_at) / RFU KRTAP10-11 (11738290_x_at) / Fold change /veh KRTAP10-11 (11738290_x_at) / RFU MYO3A (11730013_a_at) / Fold change /veh MYO3A (11730013_a_at) / RFU EBF3 (11725865_a_at) / Fold change /veh EBF3 (11725865_a_at) / RFU CAMK2N1 (11719241_x_at) / Fold change /veh CAMK2N1 (11719241_x_at) / RFU C5orf56 (11738088_a_at) / Fold change /veh C5orf56 (11738088_a_at) / RFU OLFML3 (11715873_a_at) / Fold change /veh OLFML3 (11715873_a_at) / RFU LOC100653217 /// NTM (11731650_a_at) / Fold change /veh LOC100653217 /// NTM (11731650_a_at) / RFU MAPK11 (11762145_a_at) / Fold change /veh MAPK11 (11762145_a_at) / RFU FIZ1 (11724087_x_at) / Fold change /veh FIZ1 (11724087_x_at) / RFU OASL (11726364_x_at) / Fold change /veh OASL (11726364_x_at) / RFU SOX15 (11748057_x_at) / Fold change /veh SOX15 (11748057_x_at) / RFU CD79A (11719716_a_at) / Fold change /veh CD79A (11719716_a_at) / RFU HIST1H1D (11736915_at) / Fold change /veh HIST1H1D (11736915_at) / RFU CASKIN2 (11723855_a_at) / Fold change /veh CASKIN2 (11723855_a_at) / RFU LOC730098 (11760151_x_at) / Fold change /veh LOC730098 (11760151_x_at) / RFU OR4N2 (11742367_at) / Fold change /veh OR4N2 (11742367_at) / RFU PRRT2 (11749266_a_at) / Fold change /veh PRRT2 (11749266_a_at) / RFU SNX32 (11753110_a_at) / Fold change /veh SNX32 (11753110_a_at) / RFU CDHR5 (11726645_a_at) / Fold change /veh CDHR5 (11726645_a_at) / RFU RCAN1 (11760418_a_at) / Fold change /veh RCAN1 (11760418_a_at) / RFU FAM167A (11723789_a_at) / Fold change /veh FAM167A (11723789_a_at) / RFU FAM26E (11764081_at) / Fold change /veh FAM26E (11764081_at) / RFU ISYNA1 (11749810_s_at) / Fold change /veh ISYNA1 (11749810_s_at) / RFU ACY1 (11761880_at) / Fold change /veh ACY1 (11761880_at) / RFU 11764098_at / Fold change /veh 11764098_at / RFU SAMD14 (11745864_x_at) / Fold change /veh SAMD14 (11745864_x_at) / RFU NPB (11741838_a_at) / Fold change /veh NPB (11741838_a_at) / RFU TMPRSS6 (11731388_a_at) / Fold change /veh TMPRSS6 (11731388_a_at) / RFU KRTAP10-2 (11738614_at) / Fold change /veh KRTAP10-2 (11738614_at) / RFU ARHGAP8 /// PRR5-ARHGAP8 (11727945_x_at) / Fold change /veh ARHGAP8 /// PRR5-ARHGAP8 (11727945_x_at) / RFU KRTAP5-7 /// NADSYN1 (11734609_at) / Fold change /veh KRTAP5-7 /// NADSYN1 (11734609_at) / RFU RASL12 (11751679_a_at) / Fold change /veh RASL12 (11751679_a_at) / RFU CDKN2B (11736163_a_at) / Fold change /veh CDKN2B (11736163_a_at) / RFU PRF1 (11729649_at) / Fold change /veh PRF1 (11729649_at) / RFU, ZNF638 /// ZNF638-IT1 / Fold change vs veh, ZNF638 /// ZNF638-IT1 / RFU, PANK3 / Fold change vs veh, PANK3 / RFU, SH3YL1 / Fold change vs veh, SH3YL1 / RFU, ZEB2 / Fold change vs veh, ZEB2 / RFU, NRIP1 / Fold change vs veh, NRIP1 / RFU, PTTG1IP / Fold change vs veh, PTTG1IP / RFU, CAPN2 / Fold change vs veh, CAPN2 / RFU, MED14 / Fold change vs veh, MED14 / RFU, SNORA58 / Fold change vs veh, SNORA58 / RFU, C1orf63 / Fold change vs veh, C1orf63 / RFU, LRRFIP1 / Fold change vs veh, LRRFIP1 / RFU, NDUFAF7 / Fold change vs veh, NDUFAF7 / RFU, SLC12A2 / Fold change vs veh, SLC12A2 / RFU, IBTK / Fold change vs veh, IBTK / RFU, ESF1 / Fold change vs veh, ESF1 / Fold change vs veh, TMEM50B / RFU, TAOK1 / Fold change vs veh, TAOK1 / RFU, ACBD3 / Fold change vs veh, ACBD3 / RFU, TMA16 / Fold change vs veh, TMA16 / RFU, RWDD3 / Fold change vs veh, RWDD3 / RFU, BCAT1 / Fold change vs veh, BCAT1 / RFU, EDEM3 / Fold change vs veh, EDEM3 / RFU, TMEM33 / Fold change vs veh, TMEM33 / RFU, WDR75 / Fold change vs veh, WDR75 / RFU, AHCTF1 / Fold change vs veh, AHCTF1 / RFU, TFRC / Fold change vs veh, TFRC / RFU, ZDHHC17 / Fold change vs veh, ZDHHC17 / RFU, NOM1 / Fold change vs veh, NOM1 / RFU, ARL8B / Fold change vs veh, ARL8B / RFU, ZBTB11 / Fold change vs veh, ZBTB11 / RFU, TAMM41 / Fold change vs veh, TAMM41 / RFU, KIAA1704 /// LOC100996395 / Fold change vs veh, KIAA1704 /// LOC100996395 / RFU, ING1 / Fold change vs veh, ING1 / RFU, TRMT61B / Fold change vs veh, TRMT61B / RFU, FUBP3 / Fold change vs veh, FUBP3 / RFU, TP53 / Fold change vs veh, TP53 / RFU, TNKS2 / Fold change vs veh, TNKS2 / RFU, ZFP14 / Fold change vs veh, ZFP14 / RFU, ACTR2 / Fold change vs veh, ACTR2 / RFU, PPP3R1 / Fold change vs veh, PPP3R1 / RFU, PIK3R1 / Fold change vs veh, PIK3R1 / RFU, HNRNPA1 / Fold change vs veh, HNRNPA1 / RFU, RNF170 / Fold change vs veh, RNF170 / RFU, ZNF28 / Fold change vs veh, ZNF28 / RFU, RNGTT / Fold change vs veh, RNGTT / RFU, OGT / Fold change vs veh, OGT / RFU, BRD1 / Fold change vs veh, BRD1 / RFU, MARS / Fold change vs veh, MARS / RFU, ZNF655 / Fold change vs veh, ZNF655 / RFU, FAHD1 / Fold change vs veh, FAHD1 / RFU, BDP1 / Fold change vs veh, BDP1 / RFU, LRRCC1 / Fold change vs veh, LRRCC1 / RFU, ARID1A / Fold change vs veh, ARID1A / RFU, ZNF146 / Fold change vs veh, ZNF146 / RFU, ZNF330 / Fold change vs veh, ZNF330 / RFU, GPN3 / Fold change vs veh, GPN3 / RFU, C9orf123 / Fold change vs veh, C9orf123 / RFU, N4BP2L2 / Fold change vs veh, N4BP2L2 / RFU, ARFIP1 / Fold change vs veh, ARFIP1 / RFU, FAM179B / Fold change vs veh, FAM179B / RFU, BCL10 / Fold change vs veh, BCL10 / RFU, UHRF1BP1L / Fold change vs veh, UHRF1BP1L / RFU, BET1 / Fold change vs veh, BET1 / RFU, CNOT2 / Fold change vs veh, CNOT2 / RFU, ZNF268 / Fold change vs veh, ZNF268 / Fold change vs veh, ZNF507 / RFU, DGCR2 / Fold change vs veh, DGCR2 / RFU, WDSUB1 / Fold change vs veh, WDSUB1 / Fold change vs veh, HSP90B1 /// MIR3652 / RFU, ADSS / Fold change vs veh, ADSS / RFU, GK / Fold change vs veh, GK / RFU, ZNF148 / Fold change vs veh, ZNF148 / RFU, TAF9 / Fold change vs veh, TAF9 / RFU, SLC1A5 / Fold change vs veh, SLC1A5 / RFU, SLMO2 / Fold change vs veh, SLMO2 / RFU, ABCC4 / Fold change vs veh, ABCC4 / RFU, LOC101060439 /// RAP1B / Fold change vs veh, LOC101060439 /// RAP1B / RFU, RFX7 / Fold change vs veh, RFX7 / RFU, GTPBP10 / Fold change vs veh, GTPBP10 / RFU, CNEP1R1 / Fold change vs veh, CNEP1R1 / RFU, BIVM-ERCC5 /// ERCC5 / Fold change vs veh, BIVM-ERCC5 /// ERCC5 / RFU, ILF3 / Fold change vs veh, ILF3 / RFU 11762660_at / Fold change /veh 11762660_at / RFU VCAN (11757783_s_at) / Fold change /veh VCAN (11757783_s_at) / RFU DDX43 (11728927_at) / Fold change /veh DDX43 (11728927_at) / RFU KRT8 (11758188_x_at) / Fold change /veh KRT8 (11758188_x_at) / RFU NKD1 (11759106_at) / Fold change /veh NKD1 (11759106_at) / RFU SRD5A1 (11742802_a_at) / Fold change /veh SRD5A1 (11742802_a_at) / RFU TPSAB1 /// TPSB2 (11721975_s_at) / Fold change /veh TPSAB1 /// TPSB2 (11721975_s_at) / RFU GSTM3 (11746129_a_at) / Fold change /veh GSTM3 (11746129_a_at) / RFU IL23R (11737362_x_at) / Fold change /veh IL23R (11737362_x_at) / RFU TMEM51 (11727254_a_at) / Fold change /veh TMEM51 (11727254_a_at) / RFU PIWIL2 (11732686_x_at) / Fold change /veh PIWIL2 (11732686_x_at) / RFU ORM1 (11744905_x_at) / Fold change /veh ORM1 (11744905_x_at) / RFU CCDC152 (11743942_at) / Fold change /veh CCDC152 (11743942_at) / RFU ECM1 (11717891_a_at) / Fold change /veh ECM1 (11717891_a_at) / RFU IL23R (11748794_a_at) / Fold change /veh IL23R (11748794_a_at) / RFU TNFAIP8L3 (11732012_x_at) / Fold change /veh TNFAIP8L3 (11732012_x_at) / RFU MBOAT4 (11741988_at) / Fold change /veh MBOAT4 (11741988_at) / RFU 11764193_at / Fold change /veh 11764193_at / RFU TMEM53 (11763286_at) / Fold change /veh TMEM53 (11763286_at) / RFU MAGEB2 (11727129_at) / Fold change /veh MAGEB2 (11727129_at) / RFU TMEM200A (11744735_a_at) / Fold change /veh TMEM200A (11744735_a_at) / RFU CCDC152 (11751479_a_at) / Fold change /veh CCDC152 (11751479_a_at) / RFU FAM211A (11726209_a_at) / Fold change /veh FAM211A (11726209_a_at) / RFU RGS16 (11746705_a_at) / Fold change /veh RGS16 (11746705_a_at) / RFU VCAN (11755009_s_at) / Fold change /veh VCAN (11755009_s_at) / RFU RHOB (11743442_s_at) / Fold change /veh RHOB (11743442_s_at) / RFU RGS16 (11720943_a_at) / Fold change /veh RGS16 (11720943_a_at) / RFU RGS16 (11720944_at) / Fold change /veh RGS16 (11720944_at) / RFU, VPS4B / Fold change vs veh, VPS4B / RFU, CREB1 / Fold change vs veh, CREB1 / RFU, DNAJC13 / Fold change vs veh, DNAJC13 / RFU, GNAQ / Fold change vs veh, GNAQ / RFU, CDK5R1 / Fold change vs veh, CDK5R1 / RFU, ZRANB3 / Fold change vs veh, ZRANB3 / RFU, CUL4A / Fold change vs veh, CUL4A / RFU, CCNY / Fold change vs veh, CCNY / RFU, UFL1 / Fold change vs veh, UFL1 / RFU, COG3 / Fold change vs veh, COG3 / RFU, DIAPH2 / Fold change vs veh, DIAPH2 / RFU, SKA2 / Fold change vs veh, SKA2 / RFU, AFF3 / Fold change vs veh, AFF3 / RFU, LMF1 / Fold change vs veh, LMF1 / RFU, IPO11 / Fold change vs veh, IPO11 / RFU, DFFB / Fold change vs veh, DFFB / RFU, FOXP1 / Fold change vs veh, FOXP1 / RFU, CARD8 / Fold change vs veh, CARD8 / RFU, STRN3 / Fold change vs veh, STRN3 / RFU, ADK / Fold change vs veh, ADK / RFU, RASSF2 / Fold change vs veh, RASSF2 / RFU, WIPF1 / Fold change vs veh, WIPF1 / RFU, LARP1B / Fold change vs veh, LARP1B / RFU, RASA1 / Fold change vs veh, RASA1 / RFU, RB1 / Fold change vs veh, RB1 / RFU, PPFIA1 / Fold change vs veh, PPFIA1 / RFU, MAT2A / Fold change vs veh, MAT2A / RFU, CCT5 / Fold change vs veh, CCT5 / RFU, WDR92 / Fold change vs veh, WDR92 / RFU, CUX1 / Fold change vs veh, CUX1 / RFU, TTC7A / Fold change vs veh, TTC7A / RFU, TMEM135 / Fold change vs veh, TMEM135 / RFU, DEPTOR / Fold change vs veh, DEPTOR / RFU, CPM / Fold change vs veh, CPM / RFU, DNAJB6 / Fold change vs veh, DNAJB6 / RFU, CACNA2D3 / Fold change vs veh, CACNA2D3 / RFU, DTX4 / Fold change vs veh, DTX4 / RFU, TFCP2 / Fold change vs veh, TFCP2 / RFU, GMCL1 /// GMCL1P1 / Fold change vs veh, GMCL1 /// GMCL1P1 / RFU, AEBP2 / Fold change vs veh, AEBP2 / RFU, SNHG1 /// SNORD22 /// SNORD25 /// SNORD26 /// SNORD27 /// SNORD28 /// SNORD29 /// SNORD31 / Fold change vs veh, SNHG1 /// SNORD22 /// SNORD25 /// SNORD26 /// SNORD27 /// SNORD28 /// SNORD29 /// SNORD31 / Fold change (Aza/veh), C12orf56 (ProbeSet 11735607_a_at) / Fold change (ACY-1035/veh), C12orf56 (ProbeSet 11735607_a_at) / Fold change (Aza/veh), FGFR1OP (ProbeSet 11751329_s_at) / Fold change (ACY-1035/veh), FGFR1OP (ProbeSet 11751329_s_at) / Fold change (Aza/veh), VPS36 (ProbeSet 11739960_a_at) / Fold change (ACY-1035/veh), VPS36 (ProbeSet 11739960_a_at) / RFU SYPL1 (11715823_x_at) / Fold change /veh SYPL1 (11715823_x_at) / RFU IGFBP7 (11715501_s_at) / Fold change /veh IGFBP7 (11715501_s_at) / RFU REEP3 (11722064_at) / Fold change /veh REEP3 (11722064_at) / RFU IGLL1 (11728026_x_at) / Fold change /veh IGLL1 (11728026_x_at): dose or concentration left out as unconfirmed
Settings: ProbeSet 11749645_x_at; LIST B

Nc1ccc(-c2cccs2)cc1NC(=O)c1ccc2c(c1)cc(C1CC1)n2CCN1CCOCC1 [ACY-1035]
Fold change vs veh, ZNF268: 0.87
